This note sets out measurements from ChEMBL document CHEMBL5291721, “A preclinical secondary pharmacology resource illuminates target-adverse drug reaction associations of marketed drugs” (Nat Commun, 2023).

The target of assay [1] is cGMP-inhibited 3',5'-cyclic phosphodiesterase 3A (Homo sapiens, UniProt Q14432). The format is functional.
Assay [2] deals with T1, Gamma-aminobutyric acid receptor subunit alpha-1 (Rattus norvegicus, UniProt P62813).
For assay [3], the target named is Prostaglandin G/H synthase 1 (Homo sapiens, UniProt P23219). The format is functional.
Chain of Prostaglandin G/H synthase 1 (P23219 whole entry): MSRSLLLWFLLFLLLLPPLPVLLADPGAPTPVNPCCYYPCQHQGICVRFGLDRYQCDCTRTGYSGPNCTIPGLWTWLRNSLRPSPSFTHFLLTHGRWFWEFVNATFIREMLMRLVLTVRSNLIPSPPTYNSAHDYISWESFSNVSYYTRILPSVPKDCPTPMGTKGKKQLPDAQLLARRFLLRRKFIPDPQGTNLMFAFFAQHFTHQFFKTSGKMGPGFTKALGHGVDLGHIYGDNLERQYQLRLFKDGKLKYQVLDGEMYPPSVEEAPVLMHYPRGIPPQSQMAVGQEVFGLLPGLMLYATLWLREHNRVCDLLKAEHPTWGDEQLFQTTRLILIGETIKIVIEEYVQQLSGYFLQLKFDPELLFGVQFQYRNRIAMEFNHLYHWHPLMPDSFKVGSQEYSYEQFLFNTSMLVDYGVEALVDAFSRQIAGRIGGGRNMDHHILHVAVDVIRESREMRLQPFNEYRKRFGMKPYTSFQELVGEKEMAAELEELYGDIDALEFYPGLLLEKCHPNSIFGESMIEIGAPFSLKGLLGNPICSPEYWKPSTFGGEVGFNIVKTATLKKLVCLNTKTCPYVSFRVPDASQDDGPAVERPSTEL
A further assay has as its target T2, Progesterone receptor (Homo sapiens, UniProt P06401).
T2 sequence (P06401 whole entry): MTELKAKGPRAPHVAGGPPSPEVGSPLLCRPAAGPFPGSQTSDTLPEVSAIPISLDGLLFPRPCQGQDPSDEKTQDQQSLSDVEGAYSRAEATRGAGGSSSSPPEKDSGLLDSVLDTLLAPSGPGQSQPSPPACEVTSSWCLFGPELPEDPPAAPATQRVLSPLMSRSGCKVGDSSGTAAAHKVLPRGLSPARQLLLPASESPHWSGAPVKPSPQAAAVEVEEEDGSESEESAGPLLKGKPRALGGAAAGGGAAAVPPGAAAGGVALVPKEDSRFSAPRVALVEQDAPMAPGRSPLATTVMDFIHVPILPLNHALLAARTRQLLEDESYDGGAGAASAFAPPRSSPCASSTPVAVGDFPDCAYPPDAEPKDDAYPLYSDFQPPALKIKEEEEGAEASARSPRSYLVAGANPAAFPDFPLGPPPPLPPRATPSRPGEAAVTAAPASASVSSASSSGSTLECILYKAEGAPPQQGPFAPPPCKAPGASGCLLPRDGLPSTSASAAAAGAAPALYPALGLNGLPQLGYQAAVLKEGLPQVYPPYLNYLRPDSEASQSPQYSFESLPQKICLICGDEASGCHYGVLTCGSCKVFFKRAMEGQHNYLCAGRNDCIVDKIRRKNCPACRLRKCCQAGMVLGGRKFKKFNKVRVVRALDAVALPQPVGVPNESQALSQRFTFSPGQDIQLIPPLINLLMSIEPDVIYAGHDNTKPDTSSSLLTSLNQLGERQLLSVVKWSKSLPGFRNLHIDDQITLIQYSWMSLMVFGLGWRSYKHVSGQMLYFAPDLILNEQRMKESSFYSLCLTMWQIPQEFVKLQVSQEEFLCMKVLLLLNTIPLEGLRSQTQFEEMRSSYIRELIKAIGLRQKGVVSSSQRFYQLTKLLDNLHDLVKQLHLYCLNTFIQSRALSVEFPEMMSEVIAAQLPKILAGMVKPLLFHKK

For another assay, the target named is D(3) dopamine receptor (Homo sapiens, UniProt P35462).
A further assay addresses Acetylcholinesterase (Homo sapiens, UniProt P22303). The format is functional.
The target in another assay is Prothrombin (Homo sapiens, UniProt P00734). The format is functional.
The target of assay [4] is Sodium-dependent dopamine transporter (Homo sapiens, UniProt Q01959).
Chain of Sodium-dependent dopamine transporter (Q01959 whole entry): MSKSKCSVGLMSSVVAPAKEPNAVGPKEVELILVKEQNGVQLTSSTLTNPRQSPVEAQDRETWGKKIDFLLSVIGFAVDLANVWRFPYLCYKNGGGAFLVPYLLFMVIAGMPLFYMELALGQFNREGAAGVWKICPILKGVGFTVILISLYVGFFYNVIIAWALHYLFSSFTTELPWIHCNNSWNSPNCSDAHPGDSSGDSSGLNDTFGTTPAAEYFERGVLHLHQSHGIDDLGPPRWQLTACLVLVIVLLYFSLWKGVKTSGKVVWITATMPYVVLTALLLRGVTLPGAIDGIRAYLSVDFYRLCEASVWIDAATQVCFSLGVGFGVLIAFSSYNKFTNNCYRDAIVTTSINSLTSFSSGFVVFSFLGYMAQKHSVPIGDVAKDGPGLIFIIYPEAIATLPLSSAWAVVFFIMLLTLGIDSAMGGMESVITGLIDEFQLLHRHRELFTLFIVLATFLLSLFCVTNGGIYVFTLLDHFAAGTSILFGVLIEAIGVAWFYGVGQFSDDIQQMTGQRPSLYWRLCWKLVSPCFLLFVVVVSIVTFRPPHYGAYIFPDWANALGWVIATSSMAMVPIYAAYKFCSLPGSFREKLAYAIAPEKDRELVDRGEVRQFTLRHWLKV
In another assay the target is T3, Thromboxane A2 receptor (Homo sapiens, UniProt P21731).
T3 sequence (P21731 whole entry): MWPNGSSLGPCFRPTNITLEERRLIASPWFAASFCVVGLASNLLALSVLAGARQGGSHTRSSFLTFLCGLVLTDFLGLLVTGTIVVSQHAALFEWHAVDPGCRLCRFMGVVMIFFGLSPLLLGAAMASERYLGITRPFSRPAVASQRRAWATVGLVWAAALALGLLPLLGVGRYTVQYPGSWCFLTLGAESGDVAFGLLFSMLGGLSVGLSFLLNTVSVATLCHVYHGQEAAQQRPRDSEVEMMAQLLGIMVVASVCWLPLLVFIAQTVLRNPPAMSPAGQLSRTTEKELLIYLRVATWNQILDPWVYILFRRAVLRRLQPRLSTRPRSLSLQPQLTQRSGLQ
The format is functional, cell-based.

In assay [5] the target is T4, 5-hydroxytryptamine receptor 1A (Homo sapiens, UniProt P08908).
T4 sequence (P08908 whole entry): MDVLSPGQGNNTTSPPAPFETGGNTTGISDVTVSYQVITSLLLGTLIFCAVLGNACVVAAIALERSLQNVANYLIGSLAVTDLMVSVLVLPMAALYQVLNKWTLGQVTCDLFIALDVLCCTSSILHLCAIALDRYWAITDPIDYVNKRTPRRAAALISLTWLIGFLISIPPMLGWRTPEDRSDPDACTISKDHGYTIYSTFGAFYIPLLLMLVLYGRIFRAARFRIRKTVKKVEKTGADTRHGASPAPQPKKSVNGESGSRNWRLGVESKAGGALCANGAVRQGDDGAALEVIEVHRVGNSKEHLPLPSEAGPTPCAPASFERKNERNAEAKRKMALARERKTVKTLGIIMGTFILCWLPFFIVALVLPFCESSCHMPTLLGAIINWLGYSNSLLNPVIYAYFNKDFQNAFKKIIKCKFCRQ

The next assay addresses Histamine H3 receptor (Homo sapiens, UniProt Q9Y5N1).
Assay [6] concerns the target T5, Muscarinic acetylcholine receptor M1 (Homo sapiens, UniProt P11229).
T5 sequence (P11229 whole entry): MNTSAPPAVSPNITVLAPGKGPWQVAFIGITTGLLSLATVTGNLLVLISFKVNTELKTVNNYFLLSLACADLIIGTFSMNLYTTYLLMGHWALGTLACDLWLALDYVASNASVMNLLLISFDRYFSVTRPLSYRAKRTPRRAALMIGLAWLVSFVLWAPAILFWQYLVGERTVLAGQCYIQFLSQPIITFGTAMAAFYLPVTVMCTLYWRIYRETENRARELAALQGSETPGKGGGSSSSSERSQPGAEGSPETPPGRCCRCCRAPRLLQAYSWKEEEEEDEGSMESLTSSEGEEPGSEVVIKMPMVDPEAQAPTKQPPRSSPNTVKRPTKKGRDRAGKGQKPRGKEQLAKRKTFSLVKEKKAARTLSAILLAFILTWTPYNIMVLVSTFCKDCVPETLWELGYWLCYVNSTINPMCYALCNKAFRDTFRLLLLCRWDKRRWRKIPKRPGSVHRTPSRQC
The format is functional, cell-based.

The target of assay [7] is T1, Gamma-aminobutyric acid receptor subunit alpha-1. The format is functional.
In assay [8] the target is Voltage-gated inwardly rectifying potassium channel KCNH2 (Homo sapiens, UniProt Q12809). The format is functional.
Chain of Voltage-gated inwardly rectifying potassium channel KCNH2 (Q12809 whole entry): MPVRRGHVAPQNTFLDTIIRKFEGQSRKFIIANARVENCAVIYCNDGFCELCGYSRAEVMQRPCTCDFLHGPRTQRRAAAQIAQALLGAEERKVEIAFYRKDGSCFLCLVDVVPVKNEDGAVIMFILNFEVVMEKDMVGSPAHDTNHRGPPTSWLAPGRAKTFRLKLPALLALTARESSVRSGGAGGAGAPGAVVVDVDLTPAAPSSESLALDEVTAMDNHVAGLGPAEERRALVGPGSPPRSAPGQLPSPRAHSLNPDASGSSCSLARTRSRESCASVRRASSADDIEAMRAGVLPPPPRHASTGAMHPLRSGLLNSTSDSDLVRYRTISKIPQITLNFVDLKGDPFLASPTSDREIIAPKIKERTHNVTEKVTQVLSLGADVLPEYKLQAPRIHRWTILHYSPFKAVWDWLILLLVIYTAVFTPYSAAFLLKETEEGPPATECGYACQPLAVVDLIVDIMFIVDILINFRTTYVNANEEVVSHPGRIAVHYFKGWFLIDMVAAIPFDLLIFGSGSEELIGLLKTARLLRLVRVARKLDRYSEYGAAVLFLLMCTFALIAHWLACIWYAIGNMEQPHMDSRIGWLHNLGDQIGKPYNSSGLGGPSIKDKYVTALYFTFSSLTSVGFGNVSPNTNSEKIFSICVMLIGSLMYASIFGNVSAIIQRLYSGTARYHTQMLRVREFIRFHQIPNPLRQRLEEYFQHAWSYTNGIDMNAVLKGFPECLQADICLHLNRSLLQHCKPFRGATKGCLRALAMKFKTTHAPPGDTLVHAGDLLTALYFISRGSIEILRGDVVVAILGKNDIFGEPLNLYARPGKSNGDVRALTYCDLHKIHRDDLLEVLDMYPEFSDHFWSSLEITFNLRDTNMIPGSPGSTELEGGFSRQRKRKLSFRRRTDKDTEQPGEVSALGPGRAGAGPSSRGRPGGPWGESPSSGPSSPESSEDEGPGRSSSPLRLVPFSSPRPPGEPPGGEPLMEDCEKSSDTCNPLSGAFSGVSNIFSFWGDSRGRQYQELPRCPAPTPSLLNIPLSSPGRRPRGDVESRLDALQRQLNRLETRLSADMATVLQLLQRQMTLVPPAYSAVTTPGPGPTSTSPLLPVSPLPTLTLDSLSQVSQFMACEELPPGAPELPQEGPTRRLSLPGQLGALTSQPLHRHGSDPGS
Note: assay procedure not described here.

Chain of Acetylcholinesterase (P22303 whole entry): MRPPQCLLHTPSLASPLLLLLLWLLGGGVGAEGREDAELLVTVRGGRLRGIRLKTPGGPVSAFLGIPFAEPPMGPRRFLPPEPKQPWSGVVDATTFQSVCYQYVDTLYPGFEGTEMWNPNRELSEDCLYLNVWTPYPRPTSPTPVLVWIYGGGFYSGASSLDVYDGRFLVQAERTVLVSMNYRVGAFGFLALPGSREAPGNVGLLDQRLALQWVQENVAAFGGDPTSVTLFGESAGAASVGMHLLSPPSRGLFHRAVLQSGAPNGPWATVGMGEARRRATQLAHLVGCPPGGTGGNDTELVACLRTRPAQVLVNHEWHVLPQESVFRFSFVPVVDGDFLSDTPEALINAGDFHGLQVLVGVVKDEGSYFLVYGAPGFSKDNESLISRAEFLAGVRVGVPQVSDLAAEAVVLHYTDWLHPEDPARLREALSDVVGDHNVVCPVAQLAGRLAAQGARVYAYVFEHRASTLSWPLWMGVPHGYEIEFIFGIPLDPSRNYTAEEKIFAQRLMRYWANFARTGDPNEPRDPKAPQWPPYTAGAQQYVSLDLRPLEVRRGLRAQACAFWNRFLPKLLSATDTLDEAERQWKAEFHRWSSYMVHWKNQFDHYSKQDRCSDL
Chain of cGMP-inhibited 3',5'-cyclic phosphodiesterase 3A (Q14432 whole entry): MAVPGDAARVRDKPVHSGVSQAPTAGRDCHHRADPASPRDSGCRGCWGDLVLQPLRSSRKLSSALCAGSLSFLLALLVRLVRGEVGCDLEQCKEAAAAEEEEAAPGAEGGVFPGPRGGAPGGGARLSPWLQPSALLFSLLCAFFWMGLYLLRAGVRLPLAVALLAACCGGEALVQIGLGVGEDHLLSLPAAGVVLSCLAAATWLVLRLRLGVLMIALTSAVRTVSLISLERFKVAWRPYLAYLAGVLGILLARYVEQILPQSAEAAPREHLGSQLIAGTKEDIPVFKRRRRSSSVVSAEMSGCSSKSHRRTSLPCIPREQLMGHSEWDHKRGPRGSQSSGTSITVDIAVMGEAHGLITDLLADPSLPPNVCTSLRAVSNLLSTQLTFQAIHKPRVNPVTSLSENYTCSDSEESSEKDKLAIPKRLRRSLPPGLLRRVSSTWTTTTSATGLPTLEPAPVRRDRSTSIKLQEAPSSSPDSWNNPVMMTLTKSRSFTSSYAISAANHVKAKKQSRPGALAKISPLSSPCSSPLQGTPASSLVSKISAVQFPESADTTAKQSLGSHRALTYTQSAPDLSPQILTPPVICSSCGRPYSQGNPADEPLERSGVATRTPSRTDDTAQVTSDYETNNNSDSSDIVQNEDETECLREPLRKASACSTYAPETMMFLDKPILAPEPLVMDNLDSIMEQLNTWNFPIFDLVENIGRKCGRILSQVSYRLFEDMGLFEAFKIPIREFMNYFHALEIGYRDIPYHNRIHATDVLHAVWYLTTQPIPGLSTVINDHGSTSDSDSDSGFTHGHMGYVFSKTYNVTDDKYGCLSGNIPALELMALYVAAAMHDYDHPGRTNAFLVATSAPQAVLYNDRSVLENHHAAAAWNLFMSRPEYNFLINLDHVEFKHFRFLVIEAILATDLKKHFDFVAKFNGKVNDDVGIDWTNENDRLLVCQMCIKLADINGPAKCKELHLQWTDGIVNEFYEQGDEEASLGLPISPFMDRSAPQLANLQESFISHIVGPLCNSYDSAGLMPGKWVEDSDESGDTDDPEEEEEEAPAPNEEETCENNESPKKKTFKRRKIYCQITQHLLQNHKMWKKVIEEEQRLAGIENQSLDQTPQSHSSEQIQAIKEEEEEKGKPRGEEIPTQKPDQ
Chain of Histamine H3 receptor (Q9Y5N1 whole entry): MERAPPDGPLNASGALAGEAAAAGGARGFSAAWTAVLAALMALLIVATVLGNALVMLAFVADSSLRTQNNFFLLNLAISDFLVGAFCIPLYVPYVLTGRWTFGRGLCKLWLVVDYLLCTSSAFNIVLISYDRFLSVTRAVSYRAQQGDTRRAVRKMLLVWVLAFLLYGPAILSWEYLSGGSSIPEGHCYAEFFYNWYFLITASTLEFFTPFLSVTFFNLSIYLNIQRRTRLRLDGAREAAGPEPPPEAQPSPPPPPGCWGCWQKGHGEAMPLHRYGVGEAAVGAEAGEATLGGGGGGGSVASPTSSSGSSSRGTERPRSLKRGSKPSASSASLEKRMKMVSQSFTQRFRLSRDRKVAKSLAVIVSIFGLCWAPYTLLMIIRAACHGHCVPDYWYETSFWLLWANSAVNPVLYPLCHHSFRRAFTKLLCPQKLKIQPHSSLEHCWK
T1 sequence (P62813 whole entry): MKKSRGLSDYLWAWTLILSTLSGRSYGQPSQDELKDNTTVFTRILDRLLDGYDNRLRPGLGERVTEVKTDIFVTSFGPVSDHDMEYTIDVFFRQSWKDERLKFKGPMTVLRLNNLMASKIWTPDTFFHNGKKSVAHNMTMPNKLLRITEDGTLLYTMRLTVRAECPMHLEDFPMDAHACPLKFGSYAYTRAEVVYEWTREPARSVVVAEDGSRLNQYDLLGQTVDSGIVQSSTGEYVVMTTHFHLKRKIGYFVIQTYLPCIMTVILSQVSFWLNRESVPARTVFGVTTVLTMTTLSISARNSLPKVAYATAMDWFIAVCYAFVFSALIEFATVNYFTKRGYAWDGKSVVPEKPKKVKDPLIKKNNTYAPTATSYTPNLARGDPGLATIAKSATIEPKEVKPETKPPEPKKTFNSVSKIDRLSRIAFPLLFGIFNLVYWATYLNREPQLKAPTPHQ

On to `O=C(O)CO` [GLYCOLIC ACID], for which the AC50 (in [1]; in assay [2]; in assay [3]; on Progesterone receptor; on D(3) dopamine receptor; on Acetylcholinesterase) was over 30 µM each time. In addition, the AC50 (at Prothrombin; in assay [4]; at Thromboxane A2 receptor; in assay [5]; at Histamine H3 receptor) was over 30 µM each time.
Regarding `COc1cc2nccc(Oc3ccc(NC(=O)C4(C(=O)Nc5ccc(F)cc5)CC4)cc3)c2cc1OC` [CABOZANTINIB], the AC50 is 27.9 µM in assay [1]; 2.72 µM in assay [6]; over 30 µM in [7]; over 30 µM in assay [3]; over 10 µM at Progesterone receptor; over 30 µM at D(3) dopamine receptor. Moreover, the AC50 on Acetylcholinesterase was over 30 µM; at Prothrombin it was over 30 µM; in [4] it was over 30 µM; at Thromboxane A2 receptor, over 30 µM; in [8], 8.3 µM; in assay [5] it was over 30 µM. The AC50 at Histamine H3 receptor is over 30 µM.
On to `CCOC(=O)c1c(C)cc2c(CO)n[nH]c(=O)c2c1C` [OXAGRELATE], for which the AC50 in assay [1] was 6.48 µM; in assay [2], over 30 µM; in assay [3], over 30 µM; on Progesterone receptor, over 30 µM; at D(3) dopamine receptor it was over 30 µM; on Acetylcholinesterase it was over 30 µM. The AC50 (on Prothrombin; in assay [4]; on Thromboxane A2 receptor; in [5]; at Histamine H3 receptor) was over 30 µM in each case.
`CC[C@@]1(O)C(=O)OCc2c1cc1n(c2=O)Cc2cc3c([N+](=O)[O-])cccc3nc2-1` [RUBITECAN]: the AC50 in assay [1] was over 30 µM; in assay [2], over 30 µM; in assay [3], 26.8 µM; on Progesterone receptor, over 30 µM; on D(3) dopamine receptor, over 30 µM; at Acetylcholinesterase it was 3.65 µM. The AC50 (on Prothrombin; in assay [4]; on Thromboxane A2 receptor; in assay [5]; at Histamine H3 receptor) was over 30 µM each time.
In the case of `CC(C)OC(=O)CCC/C=C\C[C@@H]1[C@@H](/C=C/C(F)(F)COc2ccccc2)[C@H](O)C[C@@H]1O` [TAFLUPROST], the AC50 (in [1]; in [6]; in assay [3]; on Progesterone receptor; at D(3) dopamine receptor; on Acetylcholinesterase) was over 30 µM each time. The AC50 (on Prothrombin; in assay [4]; at Thromboxane A2 receptor; in assay [8]; in assay [5]; on Histamine H3 receptor) was over 30 µM each time.
For the molecule `CC(CN1CC(=O)NC(=O)C1)N1CC(=O)NC(=O)C1` (centres undefined) [RAZOXANE], the AC50 in [1] was over 30 µM; in assay [6], over 30 µM; in [3], 20.4 µM; on Progesterone receptor, over 30 µM; on D(3) dopamine receptor it was over 30 µM; at Acetylcholinesterase, over 10 µM. Further, the AC50 (at Prothrombin; in assay [4]; at Thromboxane A2 receptor; in assay [8]; in assay [5]; on Histamine H3 receptor) was over 30 µM each time.
Turning to `CN(C)[C@@H]1C(O)=C(C(N)=O)C(=O)[C@@]2(O)C(O)=C3C(=O)c4c(O)ccc(Cl)c4[C@@](C)(O)[C@H]3C[C@@H]12` [CHLORTETRACYCLINE], the AC50 (in assay [1]; in [2]; in assay [3]; on Progesterone receptor; on D(3) dopamine receptor; at Acetylcholinesterase) was over 30 µM each time. Also, the AC50 (on Prothrombin; in assay [4]; at Thromboxane A2 receptor; in assay [8]; in assay [5]; on Histamine H3 receptor) was over 30 µM each time.
Take `COc1cc2nc(N3CCN(C(=O)C4CCCO4)CC3)nc(N)c2cc1OC` (centres undefined) [TERAZOSIN]: the AC50 in assay [1] was over 30 µM; in assay [7] it was over 10 µM; in assay [2], over 30 µM; in assay [3] it was over 30 µM; at D(3) dopamine receptor, over 30 µM; on Acetylcholinesterase it was 22.9 µM. Moreover, the AC50 on Prothrombin was over 10 µM; in assay [4], over 30 µM; on Thromboxane A2 receptor, over 30 µM; in assay [5] it was over 30 µM; on Histamine H3 receptor, over 30 µM.
For the molecule `Cc1ccccc1C(=O)Nc1ccc(C(=O)N2CCCC(N(C)C)c3ccccc32)cc1` (centres undefined) [MOZAVAPTAN], the AC50 in assay [1] was over 30 µM; in assay [6], 23.7 µM; in [3] it was over 30 µM; on Progesterone receptor, over 30 µM; on D(3) dopamine receptor, over 30 µM; at Acetylcholinesterase, over 30 µM. The AC50 on Prothrombin was over 30 µM; in assay [4], over 30 µM; at Thromboxane A2 receptor, over 30 µM; in [8], over 30 µM; in assay [5], 5.8 µM; at Histamine H3 receptor it was over 30 µM.
On to `OC[C@@H](O)[C@@H](O)[C@H](O)[C@@H](O)CO` [SORBITOL], for which the AC50 (in [1]; in assay [2]; in assay [3]; at Progesterone receptor; at D(3) dopamine receptor; at Acetylcholinesterase) was over 30 µM in each case. In addition, the AC50 (at Prothrombin; in [4]; on Thromboxane A2 receptor; in [8]; in [5]; at Histamine H3 receptor) was over 30 µM in each case.
`CN1C(C(=O)Nc2ccccn2)=C(O)c2ccccc2S1(=O)=O` [PIROXICAM]: the AC50 in [1] was over 30 µM; in assay [7], over 10 µM; in assay [2] it was over 30 µM; on Progesterone receptor, over 30 µM; on D(3) dopamine receptor, over 30 µM; on Acetylcholinesterase, over 30 µM. For the same molecule, the AC50 (on Prothrombin; in assay [4]; at Thromboxane A2 receptor; in [8]; in assay [5]; on Histamine H3 receptor) was over 30 µM each time.
